Laboratory results published in patent US8207172B2 (Bayer Intellectual Property GmbH, priority 2004, dated 2012).
Counter-ions that a name gives are not always drawn.

Key:
[1] = tested on: A431 cells (human epidermoid carcinoma); assay: In vitro tumor cell proliferation assay (Cell Titer-Glo luminescent cell viability), A431; type: cell-based; conditions: A-431, 72 h, 72 hours of drug exposure, ATP luminescence readout, read-out: IC50, anti-proliferative activity (inhibition of cell proliferation)
Outline: (§1)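 CellTiter-Glo luminescence (ATP content of metabolically active cells) after 72 h compound exposure at 37° C gave IC50s.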

[2] = tested on: BT474 (human breast carcinoma); assay: In vitro tumor cell proliferation assay (Cell Titer-Glo luminescent cell viability), BT474; type: cell-based; conditions: BT-474, 72 h, BT474 cells, 72 hours of drug exposure, ATP luminescence readout, read-out: IC50, anti-proliferative activity (inhibition of cell proliferation)
Outline: as §1

Compound	IC50 [1] [µM]	IC50 [2] [µM]
OCCn1ncc2c1CCc1c-2sc2ncnc(Nc3ccc(F)c(Cl)c3)c12 [Example 88, 2-{6-[(3-chloro-4-fluorophenyl)amino]-4,5-dihydro-3H-pyrimido[5′,4′:4,5]thieno[2,3-e]indazol-3-yl}ethanol]	≤ 5	≤ 5
CC(C)(C)OC(=O)NCC(=O)OCCn1cc2c(n1)CCc1c-2sc2ncnc(Nc3ccc(OCc4cccc(F)c4)c(Cl)c3)c12 [Example 314, 2-[6-({3-chloro-4-[(3-fluorobenzyl)oxy]phenyl}amino)-4,5-dihydro-2H-pyrimido[5′,4′:4,5]thieno[2,3-e]indazol-2-yl]ethyl N-(tert-butoxycarbonyl)glycinate]	≤ 5	≤ 1
Cc1ccc(Nc2ncnc3sc4c(c23)CCc2nn(CCN3CCN(C)CC3)cc2-4)cc1O [Example 329, 2-methyl-5-({2-[2-(4-methylpiperazin-1-yl)ethyl]-4,5-dihydro-2H-pyrimido[5′,4′:4,5]thieno[2,3-e]indazol-6-yl}amino)phenol]	≤ 5	≤ 5
Fc1ccc(Nc2ncnc3sc4c(c23)CCc2c-4cnn2CCNCCN2CCOCC2)cc1Cl [Example 93, N-(3-chloro-4-fluorophenyl)-3-{2-[(2-morpholin-4-ylethyl)amino]ethyl}-4,5-dihydro-3H-pyrimido[5′,4′:4,5]thieno[2,3-e]indazol-6-amine]	≤ 5	≤ 5
Cc1cc(Oc2ccc(Nc3ncnc4sc5c(c34)CCc3nn(CCN4CCN(C)CC4)cc3-5)c(F)c2)ccn1 [Example 341, N-{2-fluoro-4-[(2-methylpyridin-4-yl)oxy]phenyl}-2-[2-(4-methylpiperazin-1-yl)ethyl]-4,5-dihydro-2H-pyrimido[5′,4′:4,5]thieno[2,3-e]indazol-6-amine]	≤ 50	≤ 5
CN(C)c1ccc(NC(=O)Cn2ncc3c2CCc2c-3sc3ncnc(Nc4ccc(OCc5cccc(F)c5)c(Cl)c4)c23)cc1 [Example 192, 2-[6-({3-chloro-4-[(3-fluorobenzyl)oxy]phenyl}amino)-4,5-dihydro-3H-pyrimido[5′,4′:4,5]thieno[2,3-e]indazol-3-yl]-N-[4-(dimethylamino)phenyl]acetamide]	≤ 50	≤ 5
Clc1cc(Nc2ncnc3sc4c(c23)CCc2n[nH]cc2-4)ccc1OCc1ccccn1 [Example 109, N-[3-chloro-4-(pyridin-2-ylmethoxy)phenyl]-4,5-dihydro-2H-pyrimido[5′,4′:4,5]thieno[2,3-e]indazol-6-amine]	≤ 50	≤ 1
Cc1ccc(Oc2ccc(Nc3ncnc4sc5c(c34)CCc3nn(CCN4CCN(C)CC4)cc3-5)cc2C)cn1 [Example 49, N-{3-methyl-4-[(6-methylpyridin-3-yl)oxy]phenyl}-2-[2-(4-methylpiperazin-1-yl)ethyl]-4,5-dihydro-2H-pyrimido[5′,4′:4,5]thieno[2,3-e]indazol-6-amine]	≤ 5	≤ 1
CN1CCN(CCn2cc3c(n2)CCc2c-3sc3ncnc(Nc4cc(Cl)c(Cl)cc4F)c23)CC1 [Example 344, N-(4,5-dichloro-2-fluorophenyl)-2-[2-(4-methylpiperazin-1-yl)ethyl]-4,5-dihydro-2H-pyrimido[5′,4′:4,5]thieno[2,3-e]indazol-6-amine trifluoroacetate]	≤ 5	≤ 5
COCCNCCn1ncc2c1CCc1c-2sc2ncnc(Nc3ccc(OCc4ccccn4)c(Cl)c3)c12 [Example 113, N-[3-chloro-4-(pyridin-2-ylmethoxy)phenyl]-3-{2-[(2-methoxyethyl)amino]ethyl}-4,5-dihydro-3H-pyrimido[5′,4′:4,5]thieno[2,3-e]indazol-6-amine]	≤ 50	≤ 1
CN1CCN(CCn2ncc3c2CCc2c-3sc3ncnc(Nc4ccc(OCc5cccc(C(F)(F)F)c5)c(Cl)c4)c23)CC1 [Example 319, N-(3-chloro-4-{[3-(trifluoromethyl)benzyl]oxy}phenyl)-3-[2-(4-methylpiperazin-1-yl)ethyl]-4,5-dihydro-3H-pyrimido[5′,4′:4,5]thieno[2,3-e]indazol-6-amine]	≤ 5	≤ 5
COc1cccc(COc2ccc(Nc3ncnc4sc5c(c34)CCc3c-5cnn3CCN3CCN(C)CC3)cc2Cl)c1 [Example 318, N-{3-chloro-4-[(3-methoxybenzyl)oxy]phenyl}-3-[2-(4-methylpiperazin-1-yl)ethyl]-4,5-dihydro-3H-pyrimido[5′,4′:4,5]thieno[2,3-e]indazol-6-amine]	≤ 5	≤ 5

Further lines, results first:

IC50 [1] [µM]	IC50 [2] [µM]	Compound
≤ 5	≤ 1	COCCNC[C@@H](O)Cn1ncc2c1CCc1c-2sc2ncnc(Nc3ccc(OCc4cccc(F)c4)c(Cl)c3)c12 [Example 173, (2R)-1-[6-({3-chloro-4-[(3-fluorobenzyl)oxy]phenyl}amino)-4,5-dihydro-3H-pyrimido[5′,4′:4,5]thieno[2,3-e]indazol-3-yl]-3-[(2-methoxyethyl)amino]propan-2-ol trifluoroacetate (salt)]
≤ 5	≤ 5	CS(=O)(=O)CCNCCn1cc2c(n1)CCc1c-2sc2ncnc(Nc3ccc(F)c(Cl)c3)c12 [Example 13, N-(3-chloro-4-fluorophenyl)-2-(2-{[2-(methylsulfonyl)ethyl]amino}ethyl)-4,5-dihydro-2H-pyrimido[5′,4′:4,5]thieno[2,3-e]indazol-6-amine]
≤ 50	≤ 1	COCCN1CCN(CCn2ncc3c2CCc2c-3sc3ncnc(Nc4ccc(OCc5cccc(F)c5)c(Cl)c4)c23)CC1 [Example 265, N-{3-chloro-4-[(3-fluorobenzyl)oxy]phenyl}-3-{2-[4-(2-methoxyethyl)piperazin-1-yl]ethyl}-4,5-dihydro-3H-pyrimido[5′,4′:4,5]thieno[2,3-e]indazol-6-amine trifluoroacetate]
≤ 50	≤ 1	COCCNC(=O)Cn1ncc2c1CCc1c-2sc2ncnc(Nc3ccc(OCc4cccc(F)c4)c(Cl)c3)c12 [Example 207, 2-[6-({3-chloro-4-[(3-fluorobenzyl)oxy]phenyl}amino)-4,5-dihydro-3H-pyrimido[5′,4′:4,5]thieno[2,3-e]indazol-3-yl]-N-(2-methoxyethyl)acetamide]
≤ 50	≤ 1	CCNC[C@@H](O)Cn1cc2c(n1)CCc1c-2sc2ncnc(Nc3ccc(OCc4cccc(F)c4)c(Cl)c3)c12 [Example 157, (2R)-1-[6-({3-chloro-4-[(3-fluorobenzyl)oxy]phenyl}amino)-4,5-dihydro-2H-pyrimido[5′,4′:4,5]thieno[2,3-e]indazol-2-yl]-3-(ethylamino)propan-2-ol trifluoroacetate (salt)]
≤ 50	≤ 1	CNC[C@@H](O)Cn1cc2c(n1)CCc1c-2sc2ncnc(Nc3ccc(OCc4cccc(F)c4)c(Cl)c3)c12 [Example 155, (2R)-1-[6-({3-chloro-4-[(3-fluorobenzyl)oxy]phenyl}amino)-4,5-dihydro-2H-pyrimido[5′,4′:4,5]thieno[2,3-e]indazol-2-yl]-3-(methylamino)propan-2-ol trifluoroacetate (salt)]
≤ 5	≤ 1	O=C(Cn1ncc2c1CCc1c-2sc2ncnc(Nc3ccc(OCc4cccc(F)c4)c(Cl)c3)c12)N1CC[C@H](O)C1 [Example 214, 1-{[6-({3-chloro-4-{(3-fluorobenzyl)oxy]phenyl}amino)-4,5-dihydro-3H-pyrimido[5′,4′:4,5]thieno[2,3-e]indazol-3-yl]acetyl}pyrrolidin-3-ol]
≤ 5	≤ 5	Cc1cccc(COc2ccc(Nc3ncnc4sc5c(c34)CCc3nn(CCN4CCN(C)CC4)cc3-5)cc2Cl)c1 [Example 330, N-{3-chloro-4-[(3-methylbenzyl)oxy]phenyl}-2-[2-(4 methylpiperazin-1-yl)ethyl]-4,5-dihydro-2H-pyrimido[5′,4′:4,5]thieno[2,3-e]indazol-6-amine]
≤ 5	≤ 5	CCc1nccn1CCn1cc2c(n1)CCc1c-2sc2ncnc(Nc3ccc(F)c(Cl)c3)c12 [Example 38, N-(3-chloro-4-fluorophenyl)-2-[2-(2-ethyl-1H-imidazol-1-yl)ethyl]-4,5-dihydro-2H-pyrimido[5′,4′:4,5]thieno[2,3-e]indazol-6-amine]
≤ 5	≤ 5	CC(C)c1nccn1CCn1cc2c(n1)CCc1c-2sc2ncnc(Nc3ccc(F)c(Cl)c3)c12 [Example 42, N-(3-chloro-4-fluorophenyl)-2-[2-(2-isopropyl-1H-imidazol-1-yl)ethyl]-4,5-dihydro-2H-pyrimido[5′,4′:4,5]thieno[2,3-e]indazol-6-amine]
≤ 5	≤ 1	CCCN1CCC(n2cc3c(n2)CCc2c-3sc3ncnc(Nc4ccc(OCc5cccc(F)c5)c(Cl)c4)c23)CC1 [Example 229, N-{3-chloro-4-[(3-fluorobenzyl)oxy]phenyl}-2-(1-propylpiperidin-4-yl)-4,5-dihydro-2H-pyrimido[5′,4′:4,5]thieno[2,3-e]indazol-6-amine]
≤ 50	≤ 1	OC(CN1CCOCC1)Cn1cc2c(n1)CCc1c-2sc2ncnc(Nc3ccc(OCc4cccc(F)c4)c(Cl)c3)c12 (centres unmarked) [Example 135, 1-[6-({3-chloro-4-[(3-fluorobenzyl)oxy]phenyl}amino)-4,5-dihydro-2H-pyrimido[5′,4′:4,5]thieno[2,3-e]indazol-2-yl]-3-morpholin-4-ylpropan-2-ol]
≤ 5	≤ 1	CS(=O)(=O)OCCn1cc2c(n1)CCc1c-2sc2ncnc(Nc3ccc4c(cnn4Cc4cccc(F)c4)c3)c12 [Example 276, 2-(6-{[1-(3-fluorobenzyl)-1H-indazol-5-yl]amino}-4,5-dihydro-2H-pyrimido[5′,4′:4,5]thieno[2,3-e]indazol-2-yl)ethyl methanesulfonate]
